From patent publication US20090069320A1, “Substituted 4-Amino-Quinazoline Compounds with Metabotropic Glutamate Receptor Regulating Activity and Uses Thereof” (Gruenenthal GmbH, priority 2006, published 2009)
Structures can show the parent of a compound that is named as a salt.

Biological target: T1, mGluR5 receptor (Sus scrofa, UniProt I3LUI7)
T1 construct: 450 μg of protein from brain homogenate with 5 nM ^3[H]-MPEP; from tissue; host or cells: pig brain halves without medulla, cerebellum and pons
Experiment: [3H]-MPEP mGluR5 receptor binding assay (pig brain homogenate)
Conditions: 5 nM [3H]-MPEP; for inhibition at 10 µM / % Inhibition of mGluR5 Receptor (pig) [^3H]-MPEP Bond at 10 μM: 10 μM compound; for inhibition at 10 µM: read-out: % Inhibition of mGluR5 Receptor (pig) [^3H]-MPEP Bond at 10 μM; for IC50: read-out: IC50 mGluR5 Receptor (pig) [^3H]-MPEP Bond
In short: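 Radioligand displacement of 5 nM [3H]-MPEP from pig brain homogenate (450 μg protein; medulla, cerebellum and pons removed) in 20 mM Hepes pH 8.0. Compounds were tested at 10 μM, incubated 60 min at room temperature, then filtered and counted by scintillation. Non-specific binding was defined with 10 μM MPEP.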

T1 sequence (I3LUI7 19-1212): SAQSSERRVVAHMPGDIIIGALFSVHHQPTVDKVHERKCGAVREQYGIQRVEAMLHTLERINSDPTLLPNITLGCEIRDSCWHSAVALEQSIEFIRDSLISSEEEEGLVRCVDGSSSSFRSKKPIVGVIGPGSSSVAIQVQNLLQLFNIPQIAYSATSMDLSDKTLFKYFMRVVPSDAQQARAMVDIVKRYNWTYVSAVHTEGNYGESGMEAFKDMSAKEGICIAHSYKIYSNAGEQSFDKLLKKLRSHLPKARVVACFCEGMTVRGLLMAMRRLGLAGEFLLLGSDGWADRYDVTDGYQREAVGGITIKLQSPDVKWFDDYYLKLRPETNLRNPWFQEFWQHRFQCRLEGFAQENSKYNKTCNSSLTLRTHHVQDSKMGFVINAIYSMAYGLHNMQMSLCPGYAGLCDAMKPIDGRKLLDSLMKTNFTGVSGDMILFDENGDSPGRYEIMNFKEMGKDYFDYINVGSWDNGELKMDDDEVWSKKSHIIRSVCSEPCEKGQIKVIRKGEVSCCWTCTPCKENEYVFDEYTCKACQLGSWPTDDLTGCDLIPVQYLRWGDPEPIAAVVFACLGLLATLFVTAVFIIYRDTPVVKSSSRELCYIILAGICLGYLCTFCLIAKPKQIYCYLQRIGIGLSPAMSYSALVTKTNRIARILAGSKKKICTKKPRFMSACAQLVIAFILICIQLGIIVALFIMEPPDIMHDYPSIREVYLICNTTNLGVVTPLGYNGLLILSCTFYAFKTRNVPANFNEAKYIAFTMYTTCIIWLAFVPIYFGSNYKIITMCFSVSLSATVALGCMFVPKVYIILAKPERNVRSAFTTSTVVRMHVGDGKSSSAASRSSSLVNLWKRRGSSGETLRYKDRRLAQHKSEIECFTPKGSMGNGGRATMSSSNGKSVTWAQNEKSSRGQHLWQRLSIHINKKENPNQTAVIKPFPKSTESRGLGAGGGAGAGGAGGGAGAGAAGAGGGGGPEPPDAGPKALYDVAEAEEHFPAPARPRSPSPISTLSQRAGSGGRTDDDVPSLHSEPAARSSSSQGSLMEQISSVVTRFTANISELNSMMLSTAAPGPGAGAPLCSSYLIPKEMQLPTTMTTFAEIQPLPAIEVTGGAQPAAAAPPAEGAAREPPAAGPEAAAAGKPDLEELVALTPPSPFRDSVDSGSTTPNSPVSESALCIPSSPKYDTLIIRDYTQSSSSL

| inhibition at 10 µM | Structure (SMILES) | further results |
| --- | --- | --- |
| 68% | CCCN(Cc1cccc(-c2ccc3ncnc(Nc4ccccc4)c3c2)c1)C(=O)c1cccnc1 [Example 117, N-[3-(4-phenylamino-quinazolin-6-yl)-benzyl]-N-propyl-nicotinamide] | – |
| – | CC(C)(C)C(=O)N(Cc1cccc(-c2ccc3ncnc(NC4CC4)c3c2)c1)C1CC1 [Example 266, N-cyclopropyl-N-(3-(4-(cyclopropylamino)quinazolin-6-yl)benzyl)pivalamide] | IC50: 1.27 µM |
| – | CC(=O)N(C1CC1)C(C)c1cccc(-c2ccc3ncnc(NC4CC4)c3c2)c1 (stereo not drawn) [Example 235, N-cyclopropyl-N-{1-[3-(4-cyclopropylamino-quinazolin-6-yl)-phenyl]-ethyl}-acetamide] | IC50: 7.35 µM |
| 30% | CN(C)CC(=O)N(Cc1cccc(-c2ccc3ncnc(NC4CC4)c3c2)c1)C1CC1 [Example 173, N-cyclopropyl-N-[3-(4-cyclopropylamino-quinazolin-6-yl)-benzyl]-2-dimethylamino-acetamide] | – |
| 32% | CCCCC(=O)N(Cc1cccc(-c2ccc3ncnc(NCCc4ccccc4)c3c2)c1)C1CC1 [Example 409, N-cyclopropyl-N-(3-(4-(phenethylamino)quinazolin-6-yl)benzyl)pentanamide] | – |
| – | O=C(c1ccccn1)N(Cc1cccc(-c2ccc3ncnc(NC4CC4)c3c2)c1)C1CC1 [Example 275, N-cyclopropyl-N-(3-(4-(cyclopropylamino)quinazolin-6-yl)benzyl) picolinamide] | IC50: 1.38 µM |
| 50% | CCCCNCc1cccc(-c2ccc3ncnc(NC4CC4)c3c2)c1 [Example 310, 6-(3-((butylamino)methyl)phenyl)-N-cyclopropylquinazoline-4-amine] | – |
| 51% | c1nc(NC2CC2)c2cc(-c3csc(CNC4CC4)c3)ccc2n1 [Example 300, N-cyclopropyl-6-(5-((cyclopropylamino)methyl)thiophen-3-yl)quinazoline-4-amine] | – |
| 90% | O=C(c1ccccc1Br)N(Cc1cccc(-c2ccc3ncnc(NC4CC4)c3c2)c1)C1CC1 [Example 157, 2-bromo-N-cyclopropyl-N-[3-(4-cyclopropylamino-quinazolin-6-yl)-benzyl]-benzamide] | – |
| – | CC(C)(C)Nc1ncnc2ccc(-c3ccc(F)c(CN(C(=O)C4CCCCC4)C4CC4)c3)cc12 [Example 809, N-(5-(4-(tert-butylamino)quinazolin-6-yl)-2-fluorobenzyl)-N-cyclopropyl cyclohexane carboxamide] | % Inhibition of mGluR5 Receptor (pig) [^3H]-MPEP Bond at 10 μM: 48% |
| 93% | O=C(c1ccco1)N(Cc1cc(-c2ccc3ncnc(NC4CC4)c3c2)ccc1Cl)C1CC1 [Example 746, N-(2-chloro-5-(4-(cyclopropylamino)quinazolin-6-yl)benzyl)-N-cyclopropylfuran-2-carboxamide] | – |
| 37% | O=C(C1CCCCC1)N(Cc1cc(-c2ccc3ncnc(NC4CC4)c3c2)ccc1Cl)C1CC1 [Example 741, N-(2-chloro-5-(4-(cyclopropylamino)quinazolin-6-yl)benzyl)-N-cyclopropylcyclohexane carboxamide] | – |
| 106% | Cc1nc(NC2CC2)c2cc(-c3ccc(F)c(CN(C(=O)c4c(F)c(F)c(F)c(F)c4F)C4CC4)c3)ccc2n1 [Example 574, N-cyclopropyl-N-(5-(4-(cyclopropylamino)-2-methylquinazolin-6-yl)-2-fluorobenzyl)-2,3,4,5,6-pentafluorobenzamide] | – |
| 78% | O=C(c1ccccn1)N(Cc1cccc(-c2ccc3ncnc(NC4CC4)c3c2)c1)C1CC1 [Example 170, pyridine-2-carboxylic acid cyclopropyl-[3-(4-cyclopropylamino-quinazolin-6-yl)-benzyl]-amide] | – |
| – | CN(Cc1cccc(-c2ccc3ncnc(NC4CC4)c3c2)c1)C1CC1 [Example 891, N-cyclopropyl-6-(3-((cyclopropyl(methyl)amino)methyl)phenyl)quinazoline-4-amine] | IC50: 5.6 µM |
| 38% | CCN(CC)c1ncnc2ccc(-c3cccc(CN(C)C(=O)c4cccc(C#N)c4)c3)cc12 [Example 69, 3-cyano-N-[3-(4-diethylamino-quinazolin-6-yl)-benzyl]-N-methyl-benzamide] | – |
| 90% | CCCCC(=O)N(Cc1cccc(-c2cc3c(NC4CC4)ncnc3cc2C)c1)C1CC1 [Example 715, N-cyclopropyl-N-(3-(4-(cyclopropylamino)-7-methylquinazolin-6-yl)benzyl)pentanamide] | – |
| – | CC(C)(C)Nc1ncnc2ccc(-c3ccc(F)c(CN(C(=O)c4ccccn4)C4CC4)c3)cc12 [Example 826, N-(5-(4-(tert-butylamino)quinazolin-6-yl)-2-fluorobenzyl)-N-cyclopropyl picolinamide] | % Inhibition of mGluR5 Receptor (pig) [^3H]-MPEP Bond at 10 μM: 98% |

| inhibition at 10 µM | Structure (SMILES) | further results |
| --- | --- | --- |
| – | O=C(c1ccncc1)N(Cc1cccc(-c2ccc3ncnc(NC4CC4)c3c2)c1)C1CC1 [Example 257, N-cyclopropyl-N-[3-(4-cyclopropylamino-quinazolin-6-yl)-benzyl]-isonicotinamide] | IC50: 0.74 µM |
| 82% | CCCCC(=O)N(Cc1cccc(-c2cc(F)c3ncnc(NC4CC4)c3c2)c1)C1CC1 [Example 654, N-cyclopropyl-N-(3-(4-(cyclopropylamino)-8-fluoroquinazolin-6-yl)benzyl)pentanamide] | – |
| 66% | CC(C)Nc1ncnc2ccc(-c3cccc(CN(Cc4ccccc4)C(=O)c4ccncc4)c3)cc12 [Example 151, N-benzyl-N-[3-(4-isopropylamino-quinazolin-6-yl)-benzyl]-isonicotinamide] | – |
| – | N#CCC(=O)N(Cc1cc(-c2ccc3ncnc(NC4CC4)c3c2)ccc1F)C1CC1 [Example 281, 2-cyano-N-cyclopropyl-N-(5-(4-(cyclopropylamino)quinazolin-6-yl)-2-fluorobenzyl)acetamide hydrochloride] | IC50: 0.03 µM |
| 87% | CC(C)(C)Nc1ncnc2ccc(-c3ccc(F)c(CN(C(=O)Cc4ccccc4)C4CC4)c3)cc12 [Example 815, N-(5-(4-(tert-butylamino)quinazolin-6-yl)-2-fluorobenzyl)-N-cyclopropyl-2-phenylacetamide] | – |
| 80% | Cc1nc(NC2CC2)c2cc(-c3ccc(F)c(CN(C(=O)c4cccc(C(F)(F)F)c4)C4CC4)c3)ccc2n1 [Example 582, N-cyclopropyl-N-(5-(4-(cyclopropylamino)-2-methylquinazolin-6-yl)-2-fluorobenzyl)-3-(trifluoromethyl)benzamide] | – |
| 32% | Cc1ccc(C(=O)N(Cc2cccc(-c3ccc4ncnc(N5CCOCC5)c4c3)c2)CC(C)C)cc1 [Example 22, N-isobutyl-4-methyl-N-[3-(4-morpholin-4-yl-quinazolin-6-yl)-benzyl]-benzamide] | – |
| 82% | COCC(=O)N(Cc1cc(-c2ccc3ncnc(NC(C)(C)C)c3c2)ccc1F)C1CC1 [Example 846, N-(5-(4-(tert-butylamino)quinazolin-6-yl)-2-fluorobenzyl)-N-cyclopropyl-2-methoxyacetamide] | – |
| 47% | CC(=O)N(Cc1cncc(-c2ccc3ncnc(NC4CC4)c3c2)c1)C1CC1 [Example 240, N-cyclopropyl-N-[5-(4-cyclopropylamino-quinazolin-6-yl)-pyridin-3-yl-methyl]-acetamide] | – |
| 93% | O=S(=O)(c1cccs1)N(Cc1cccc(-c2cc(F)c3ncnc(NC4CC4)c3c2)c1)C1CC1 [Example 701, N-cyclopropyl-N-(3-(4-(cyclopropylamino)-8-fluoroquinazolin-6-yl)benzyl)thiophene-2-sulfonamide] | – |
| 97% | Cc1nc(C(=O)N(Cc2cc(-c3ccc4ncnc(NC(C)(C)C)c4c3)ccc2F)C2CC2)cs1 [Example 825, N-(5-(4-(tert-butylamino)quinazolin-6-yl)-2-fluorobenzyl)-N-cyclopropyl-2-methylthiazole-4-carboxamide] | – |
| – | O=C(c1ccno1)N(Cc1cc(-c2ccc3ncnc(NC4CC4)c3c2)ccc1F)C1CC1 [Example 457, N-cyclopropyl-N-(5-(4-(cyclopropylamino)quinazolin-6-yl)-2-fluorobenzyl)isoxazole-5-carboxamide] | IC50: 0.21 µM |
| 63% | O=C(c1cccc(C(F)(F)F)c1)N(Cc1cccc(-c2cc(F)c3ncnc(NC4CC4)c3c2)c1)C1CC1 [Example 728, N-cyclopropyl-N-(3-(4-(cyclopropylamino)-8-fluoroquinazolin-6-yl)benzyl)-3-(trifluoromethyl)benzamide] | – |
| 86% | Cc1cc2ncnc(NC3CC3)c2cc1-c1cccc(CN(C(=O)c2cccnc2)C2CC2)c1 [Example 702, N-cyclopropyl-N-(3-(4-(cyclopropylamino)-7-methylquinazolin-6-yl)benzyl)nicotinamide] | – |
| 38% | CC(C)Nc1ncnc2ccc(-c3cccc(CN(Cc4ccccc4)C(=O)CC#N)c3)cc12 [Example 53, N-benzyl-2-cyano-N-[3-(4-isopropylamino-quinazolin-6-yl)-benzyl]-acetamide] | – |
| 94% | Cc1cc2ncnc(NC3CC3)c2cc1-c1cccc(CN(C(=O)c2ccc(F)cc2F)C2CC2)c1 [Example 660, N-cyclopropyl-N-(3-(4-(cyclopropylamino)-7-methylquinazolin-6-yl)benzyl)-2,4-difluorobenzamide] | – |
| 57% | O=C(O)CCC(=O)NCc1cccc(-c2ccc3ncnc(Nc4ccccc4)c3c2)c1 [Example 329, 4-oxo-4-(3-(4-(phenylamino)quinazolin-6-yl)benzylamino)butyric acid] | – |
| – | CC(C)(C)Nc1ncnc2ccc(-c3ccc(F)c(CN(C(=O)c4cccnc4)C4CC4)c3)cc12 [Example 838, N-(5-(4-(tert-butylamino)quinazolin-6-yl)-2-fluorobenzyl)-N-cyclopropyl nicotinamide] | % Inhibition of mGluR5 Receptor (pig) [^3H]-MPEP Bond at 10 μM: 92% |
